This is an account of results in US20250177530A1, “MOLECULES THAT BIND TO ENPP1 POLYPEPTIDES” (UNIVERSITY OF PITTSBURGH - OF THE COMMONWEALTH SYSTEM OF …, priority 2022, published 2025).

Non-standard residues stand in square brackets, D forms with d. Residues, ends and D or L forms follow the SMILES beside them. *: point of attachment. Dolaproine = CO[C@@H]([C@@H]1CCCN1)[C@@H](C)C(=O)O; Dil = CC[C@H](C)[C@H](NC)[C@@H](CC(=O)O)OC; X1 = C[C@@H](N*)[C@@H](O)c1ccccc1; NMeV = CN[C@H](C(=O)O)C(C)C

Holding throughout (assay): ADC cytotoxicity (Cell Titer-Glo cell viability)
Holding throughout (type): cell-based
(Cellular ATP, detected with luciferase, serves as a proxy for viable cell number.)

The subject of one assay is 293T cells. The protocol:
(§1) The cell-killing activity of anti-ENPP1 CAR^+ T cells and BiTEs were measured by LDH-Glo cytotoxicity assay kit (Promega, Madison, WI, USA). For the cell-killing activity of anti-ENPP1 CAR^+ T cells, control T cells or CAR^+ T cells as effector cells were incubated with 293T, 293T-ENPP1, and HepG2 target cells (5×10^3 cells/well in 96-well plate) separately at indicated E:T ratio for 24 hours at 37° C. For the cell-killing activity of BiTEs, target cells (1×10^4 cells/well) were mixed with serially diluted BiTEs in 50 μL of growth medium, and […] activated T cells were added at the ET ratio 10:1 and cultured for 24 hours at 37° C. in 5% CO2 humidified atmosphere. Controls for the calculation of percentage cytotoxicity were performed according to the manufacturer's instructions. The calculation of relative % cytotoxicity as follows: relative % cytotoxicity=100×(Experimental LDH release-medium background)/(target and effector maximum LDH release control-medium background). For the cell-killing activity of ADC, 293T, 293T-ENPP1, and HepG2 cells were seeded at 2000 cells/well in 96-well white plate and incubated overnight at 37° C. in 5% CO2. Serial diluted anti-ENPP1 ADC was added and cultured for 4 days at 37° C. in 5% CO2. Images were captured under a 4×objective microscope (Olympus microscope, Westborough, MA, USA). Controls with cells only were used for calculation of percent relative cell viability. At the end of the time point, the Cell Titer-Glo Luminescent cell viability assay kit (Promega) was used to measure the cell viability. The calculation of % Relative cell viability was as follows: % Relative cell viability=100×(Experimental luminescence values-medium Background)/(Control luminescence values-medium Background). For ADCC, the ADCC reporter bioassay complete kit (Promega) was used, the experiment was performed following the manufacturer's instructions. The 293T-ENPP1 cell line was used as target cell.

In the next assay the test system is 293T-ENPP1 cells. The protocol:
as §1

In another assay the test system is HepG2 cells. Conditions: 200 nM. The protocol:
as §1

As for `CC[C@H](C)[C@@H]([C@@H](CC(=O)N1CCC[C@H]1[C@H](OC)[C@@H](C)C(=O)N[C@H](C)[C@@H](O)c1ccccc1)OC)N(C)C(=O)[C@@H](NC(=O)[C@@H](NC)C(C)C)C(C)C` [MMAE, monomethyl auristatin E, reference compound] (H-[NMeV]V[Dil][Dolaproine]-X1), the “killing at 200 nM” value in the assay with 293T cells (200 nM) and in the assay with 293T-ENPP1 cells was “non-specific killing” throughout. Besides, the “killing at lower concentrations” value in the assay on 293T cells (concentrations below 200 nM) is listed as “no non-specific killing”. Moreover, the “killing effects of free MMAE and ADC compared” value in the assay on HepG2 cells was “comparable”.
